Common to all, as to assay: NCI anticancer screen, dose series, 48 h
The subject of test [1] is CAKI-1 renal.
Test [2] deals with SNB-19 CNS.
Test [3] has as its system HL-60(TB) leukemia.
Test [4] deals with SF-268 CNS.
The test system of test [5] is A549 NSCLC.
The test system of test [6] is HCT-15 colon.
For test [7], the system named is K-562 leukemia.
Test [8] deals with NCI-H226 lung.
The subject of test [9] is OVCAR-4 ovarian.
Test [10] concerns NCI-H23 lung.

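1) Cells in 96-well plates. 2) Compound, 48 h, 5 concentrations. 3) Linear interpolation between surrounding doses. 4) Unreached endpoint = highest concentration. At the TGI there is no net growth.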

As for `C[C@]12CCC(=O)C=C1CC[C@@H]1[C@@H]2C(=O)C[C@@]2(C)[C@H]1CC[C@]2(O)C(=O)CO`, the TGI in test [1], in test [2], in [3], in test [4], in test [5] and in test [6] was over 100 µM in each case. The TGI in test [7], in test [8], in [9] and in test [10] was over 100 µM throughout.

For `CC(=O)c1ccc(NC(=O)/C(=N\NC(N)=O)C(C#N)CC(C)(C)C=O)cc1` (stereo not given), the TGI in test [1], in test [2], in [3], in test [4], in test [5] and in test [6] was over 100 µM throughout. The TGI in test [7], in [8], in test [9] and in test [10] was over 100 µM throughout.

As to `CCOC(OCC)C(CCc1ccccc1)c1c(N)nc(N)[nH]c1=O` (stereo not given), the TGI in test [1], in test [2], in [3], in [4], in [5] and in test [6] was over 100 µM each time. The TGI in test [7] was 84.7 µM; in test [8], over 100 µM; in [9] it was over 100 µM; in test [10], over 100 µM.

As to `COCC(=O)[C@]1(O)Cc2c(O)c3c(c(O)c2[C@@H](OC2CC(N)C(O)C(C)O2)C1)C(=O)c1c(OC)cccc1C3=O` (stereo not given in full), the TGI in test [1] was 0.422 µM; in [2] it was 2.45 µM; in [3] it was 0.184 µM; in [4] it was 0.267 µM; in test [5] it was 17.4 µM; in test [6] it was 0.498 µM. The TGI in test [7] was 0.785 µM; in [8], 0.665 µM; in [9], 1.56 µM; in [10], 0.256 µM.

As for `CC(=O)O[C@H]1CC[C@@]2(C)C(=CC[C@@H]3[C@@H]2CC[C@]2(C)c4nc(N)c(C#N)cc4C[C@@H]32)C1`, the TGI in test [1] is over 100 µM; in test [2], over 100 µM; in test [3] it was over 94.9 µM; in test [4] it was over 100 µM; in test [5], over 100 µM; in test [6], over 42.6 µM. Also, the TGI in [7] is over 100 µM; in test [8], over 100 µM; in [9], over 86.9 µM; in test [10], over 100 µM.

Turning to `O=C(NN=C1CCCCC1)Nc1ccccc1Cl`, the TGI in test [1], in test [2], in test [3], in test [4], in [5] and in test [6] was over 100 µM throughout. Also, the TGI in test [7], in test [8], in test [9] and in test [10] was over 100 µM in each case.

As for `O=[N+]([O-])c1cccc2nc3ccccc3c(NCCC[N+]3([O-])CCCCC3)c12`, the TGI in test [1] is over 100 µM; in test [2], 9.18 µM; in test [3], 8.44 µM; in [4], 2.22 µM; in [5], 3.92 µM; in test [6], over 100 µM. Further, the TGI was over 100 µM in test [7], 1.54 µM in test [8], 1.15 µM in test [9] and 0.622 µM in test [10].

With `C1OCN2c3nonc3N3COCN4c5nonc5N1C2C43` (stereo not given), the TGI in test [1], in test [2], in test [3], in test [4], in [5] and in [6] was over 100 µM throughout. The TGI in test [7], in test [8], in [9] and in test [10] was over 100 µM each time.

Take `COc1ccc(N2CCN(c3ccc4c(c3)NCC(=O)N4)CC2)cc1`: the TGI in [1] is over 100 µM; in test [2] it was over 100 µM; in test [3] it was 47.5 µM; in [4], over 100 µM; in [5] it was over 100 µM; in test [6], over 100 µM. For the same molecule, the TGI in test [7] was over 100 µM; in [8], over 100 µM; in test [9], 77.3 µM; in test [10] it was over 100 µM.

For the molecule `c1ccc([C@H]2CN3CCSC3=N2)cc1`, the TGI in [1], in [2], in test [3], in test [4], in test [5] and in test [6] was over 100 µM each time. Further, the TGI in [7], in test [8], in [9] and in test [10] was over 100 µM throughout.

As for `O=C1Nc2ccccc2NC1C1OC(c2ccccc2)=CC1=O` (stereo not given), the TGI in test [1], in test [2], in [3], in test [4], in test [5] and in [6] was over 100 µM throughout. In addition, the TGI in [7], in test [8], in test [9] and in test [10] was over 100 µM throughout.

Consider `COC(=O)C1=C(OC(=O)/C(=C/c2ccc(Cl)cc2)c2ccccc2)C(C(=O)OC)[C@@]2(O)[C@@H](C(=O)OC)[C@H](C)C[C@@H]1[C@@H]2C(=O)OC` (stereo not given in full), for which the TGI in test [1], in [2], in [3], in test [4], in test [5] and in test [6] was over 100 µM throughout. For the same molecule, the TGI in test [7], in test [8], in [9] and in test [10] was over 100 µM throughout.

With `Cc1ccc(S(=O)(=Nc2ccccc2)C(C(C)C)C(C)(C)Cl)cc1` (stereo not given), the TGI was over 50 µM in test [1]; over 50 µM in [2]; 22 µM in test [3]; over 50 µM in test [4]; over 50 µM in [5]; over 50 µM in test [6]. Also, the TGI in test [7] was over 50 µM; in [8], 45.9 µM; in test [9] it was over 50 µM; in [10] it was 46.5 µM.

For the origin of these results see PubChem BioAssay (NCI).
